Measured values reported in publication PMC8916643, “Molecular physiology of pumiliotoxin sequestration in a poison frog” (PLoS ONE, 2022).

Experiment: Alkaloid feeding experiment, alkaloid abundance in tissues by LC-MS/MS
Type: in vivo, Dendrobates tinctorius
Conditions: DHQ+PTX feeding group; fed orally daily for five days
Source text: Lab-reared (non-toxic) Dendrobates tinctorius were housed in terraria with live plants, a water pool, and a shelter. Ten adult females were size-matched, randomly assigned to control or experimental groups (N = 5 per group), and then housed individually. To measure the specific effects of PTX 251D compared to a background toxicity, the control group was fed 0.01% DHQ (Sigma-Aldrich, St. Louis, USA) in a solution of 1% EtOH and the experimental group was fed a solution of 0.01% DHQ and 0.01% PTX 251D (PepTech, Burlington, MA, USA) in a solution of 1% EtOH in water. Each frog was fed 15 μL each day for five days by pipetting the solution directly into the mouth between 10am-12pm. On the afternoon of the fifth day, frogs were euthanized by cervical transection and the dorsal skin, liver, intestines, and oocytes were dissected into Trizol (Thermo Fisher Scientific, Waltham, USA).
To isolate alkaloids, 0.3 mL of 100% EtOH was added to 1mL of organic layer from the Trizol RNA extraction, inverted 10 times, and stored at room temperature for 2–3 minutes to precipitate genomic DNA, which was pelleted by centrifugation at 2000g for 5 minutes at 4°C. Then, 300 μL of supernatant was transferred to a new microfuge tube. Proteins were precipitated by adding 900 μL of acetone, mixing by inversion for 10–15 seconds, incubating at room temperature for 10 min, and centrifuging at max speed for 10 min at 4°C. Then, 1 mL of the supernatant containing alkaloids was moved into a glass vial and stored at -20°C until dried down completely under a gentle nitrogen gas flow.
Samples were resuspended in 200 μl of methanol:chloroform 1:1 and 1 μM Nicotine-d3 (used as an internal standard). A 10-point standard curve was prepared in the same solution with DHQ and PTX 251D. A QE+ mass spectrometer coupled to an Ultimate3000 LC (ThermoFisher) was used for analysis. […] The gradient was 0% B for 1 min, then increased to 100% B in 14 min, followed by 5 min at 100% B and 3.5 min at 0% B. Data were quantified using accurate mass, using the standard curve for DHQ and PTX 251D for absolute quantification. aPTX 267A was identified by accurate mass and MS/MS fragmentation similarity to PTX.
R version 3.6.3 was used for all statistical analyses, and all plotting and statistics code is provided in a S1 File. There were instances in the LC-MS/MS data where the molecules of interest (DHQ, PTX 251D, or aPTX 267A) were not detected, and these were converted to zeros prior to statistical analyses and visualization. […] PTX 251D and DHQ were analyzed separately. The abundance of aPTX 267A was approximated using the area-under-the-curve divided by the internal nicotine standard, and as there is no standard for aPTX 267A, exact pmol values could not be calculated. […]

## CCCCC(C)C=C1CN2CCCC2C(C)(O)C1 (stereo not shown) [PTX 251D, pumiliotoxin (PTX 251D)]
  PTX 251D abundance by tissue and treatment: highest levels in the liver and skin
